Test results as given in ChEMBL document CHEMBL2177104, “Identification of antitubercular benzothiazinone compounds by ligand-based design” (J Med Chem, 2012).
Values after ≈ are worked out from the molar mass of the structure shown.

test system: Mycobacterium tuberculosis; assay: Antimycobacterial activity against multidrug-resistant Mycobacterium tuberculosis 2745/09; assay type: functional

`O=c1nc(NCc2ccc3c(c2)OCCO3)sc2c([N+](=O)[O-])cc(C(F)(F)F)cc12` and `Cc1ccc(CNc2nc(=O)c3cc(C(F)(F)F)cc([N+](=O)[O-])c3s2)n1C` cannot be ordered by MIC: 0.03 µg/mL (≈ 0.0683 µM) for the first, ≤ 0.125 µg/mL for the second.

Going from `CN(C(=O)CN1CCN(c2nc(=O)c3cc(C(F)(F)F)cc([N+](=O)[O-])c3s2)CC1)c1ccccc1` to `O=c1nc(N2CCC(c3ccccc3)CC2)sc2c([N+](=O)[O-])cc(C(F)(F)F)cc12`, the MIC falls from 0.03 µg/mL (≈ 0.0591 µM) to ≤ 0.0125 µg/mL.

`O=c1nc(N2CCN(c3nccs3)CC2)sc2c([N+](=O)[O-])cc(C(F)(F)F)cc12` and `O=c1nc(N2CCC(F)(F)CC2)sc2c([N+](=O)[O-])cc(C(F)(F)F)cc12` cannot be ordered by MIC: ≤ 0.125 µg/mL for the first, ≤ 0.125 µg/mL for the second.

Going from `CN(C)c1ccc(CN(C)c2nc(=O)c3cc(C(F)(F)F)cc([N+](=O)[O-])c3s2)cc1` to `CN(c1nc(=O)c2cc(C(F)(F)F)cc([N+](=O)[O-])c2s1)[C@H]1CCN(Cc2ccccc2)C1`, the MIC rises from 0.03 µg/mL (≈ 0.0684 µM) to > 0.03 µg/mL.

Going from `COC(=O)C1CN(c2nc(=O)c3cc(C(F)(F)F)cc([N+](=O)[O-])c3s2)CCC12OC[C@H](C)O2` (some centres not stated) to `C[C@H]1COC2(CCN(c3nc(=O)c4cc(C(F)(F)F)cc([N+](=O)[O-])c4s3)CC2)O1` [BTZ-043], the MIC falls from > 0.1 µg/mL to ≤ 0.015 µg/mL.

Compared with `COC(=O)[C@@H]1OC2(CCN(c3nc(=O)c4cc(C(F)(F)F)cc([N+](=O)[O-])c4s3)CC2)O[C@H]1c1ccccc1`, `CCCOCC1COC2(CCN(c3nc(=O)c4cc(C(F)(F)F)cc([N+](=O)[O-])c4s3)CC2)O1` (configuration not stated) is lower in MIC: > 0.03 µg/mL for the first, ≤ 0.015 µg/mL for the second.
